ChEMBL document CHEMBL1158760, “Chromenes from the brown alga Sargassum siliquastrum” (J Nat Prod, 2005)

Target: Cholinesterase (Homo sapiens) (UniProt P06276)
Assay: Inhibition of butylcholine esterase at 100 ug/mL

Cholinesterase (Homo sapiens), sequence (P06276 whole entry): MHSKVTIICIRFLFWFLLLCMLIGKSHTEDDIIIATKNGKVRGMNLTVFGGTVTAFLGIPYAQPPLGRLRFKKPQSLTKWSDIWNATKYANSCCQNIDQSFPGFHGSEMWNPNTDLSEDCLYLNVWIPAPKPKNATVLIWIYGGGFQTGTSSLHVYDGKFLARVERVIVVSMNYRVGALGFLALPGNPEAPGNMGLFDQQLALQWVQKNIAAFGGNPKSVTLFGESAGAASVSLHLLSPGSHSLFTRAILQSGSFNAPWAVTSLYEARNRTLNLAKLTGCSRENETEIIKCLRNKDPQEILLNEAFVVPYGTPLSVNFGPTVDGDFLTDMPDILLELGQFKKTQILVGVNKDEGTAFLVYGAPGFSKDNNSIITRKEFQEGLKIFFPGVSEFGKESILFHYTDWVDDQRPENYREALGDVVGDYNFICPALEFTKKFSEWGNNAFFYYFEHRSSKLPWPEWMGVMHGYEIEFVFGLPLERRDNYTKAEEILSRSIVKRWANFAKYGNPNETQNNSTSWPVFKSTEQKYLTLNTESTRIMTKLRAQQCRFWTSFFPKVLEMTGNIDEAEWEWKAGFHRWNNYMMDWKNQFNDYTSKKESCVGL

Compound | inhibition
CC(C)=CC(C(=O)O)/C(C)=C/CC/C(C)=C/CC[C@]1(C)CCc2cc(O)cc(C)c2O1 (some centres not stated) | 80%
CC(C)=C[C@@H](O)C(=O)/C(C)=C/CC/C(C)=C/CC[C@]1(C)CCc2cc(O)cc(C)c2O1 | 82.7%
